Where a SMILES comes first, the peptide text is derived from it. Bridges are numbered along the chain shown (N, C = ends). [ ]: non-standard residue; d: D form. The star is where a group is joined. ξ: configuration not given here. Phe(4-COOH) = N[C@@H](Cc1ccc(C(=O)O)cc1)C(=O)O; Bip = N[C@@H](Cc1ccc(-c2ccccc2)cc1)C(=O)O; Phe(2-Cl) = N[C@@H](Cc1ccccc1Cl)C(=O)O; Phe(3-Me) = Cc1cccc(C[C@H](N)C(=O)O)c1; Phe(4-F) = N[C@@H](Cc1ccc(F)cc1)C(=O)O; Val(3-OH) = CC(C)(O)[C@H](N)C(=O)O; 4Pal = N[C@@H](Cc1ccncc1)C(=O)O; Cha = N[C@@H](CC1CCCCC1)C(=O)O; Cit = NC(=O)NCCC[C@H](N)C(=O)O; dCha = N[C@H](CC1CCCCC1)C(=O)O; Thr(3ξ) = CC(O)[C@H](N)C(=O)O; Carboxymethyl = O=C(O)C*; NMeA = CN[C@@H](C)C(=O)O; Orn = NCCC[C@H](N)C(=O)O; Dab = NCC[C@H](N)C(=O)O; Dap = NC[C@H](N)C(=O)O; Bn = c1ccc(C*)cc1
biological target: T1, human PD-1 / PD-L1-Ig binding on Jurkat cell line over-expressing human PD-1 (Jurkat-PD-1) (Homo sapiens, UniProt Q15116); experiment: Jurkat-PD-1 Cell Binding High-Content Screening Assay (CBA); type: cell-based; settings: Jurkat HPD1_PDL1 IC50, Jurkat-PD-1 cells, PE-labeled PD-L1-Ig 20 nM final
T1 construct: expressed in transfected cells; host or cells: Jurkat
T1 sequence (Q15116 25-288): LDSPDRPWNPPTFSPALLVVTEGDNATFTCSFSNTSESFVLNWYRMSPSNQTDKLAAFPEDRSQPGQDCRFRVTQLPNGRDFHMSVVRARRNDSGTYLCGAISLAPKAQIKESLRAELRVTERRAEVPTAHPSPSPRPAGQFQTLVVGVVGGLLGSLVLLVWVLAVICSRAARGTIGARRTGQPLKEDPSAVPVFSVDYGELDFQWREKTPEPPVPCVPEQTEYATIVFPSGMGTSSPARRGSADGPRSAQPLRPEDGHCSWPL
Description: Example 3. Jurkat-PD-1 Cell Binding High-Content Screening Assay (CBA)
Jurkat-PD-1 Cell Binding High-Content Screening Assay (CBA). Phycoerythrin (PE) was covalently linked to the Ig epitope tag of human PD-L1-Ig and fluorescently-labeled PD-L1-Ig was used for binding studies with a Jurkat cell line over-expressing human PD-1 (Jurkat-PD-1). Briefly, 8×10^3 Jurkat-hPD-1 cells were seeded into 384 well plates in 20 μl of DMEM supplemented with 10% fetal calf serum. 100 nL of compound was added to cells followed by incubation at 37° C. for 2 h. Then, 5 μl of PE-labeled PD-L1-Ig (20 nM final), diluted in DMEM supplemented with 10% fetal calf serum. After 1 hour incubation, cells were fixed with 4% paraformaldehyde in dPBS containing 10 μg/ml Hoechst 33342 and then washed 3x in 100 μl dPBS. Data was collected and processed using a Cell Insight NXT High Content Imager and associated software.

Compound | IC50 [nM]
CC(C)C[C@H]1NC(=O)[C@H](CCCN)NC(=O)[C@H](C(C)C)NC(=O)[C@H](Cc2ccc(-c3ccccc3)cc2)NC(=O)[C@H](C(C)C)NC(=O)[C@H](Cc2c[nH]c3ccccc23)NC(=O)[C@H](CC(=O)O)NC(=O)[C@H](Cc2ccc(OCC(=O)O)cc2)NC(=O)[C@H](Cc2ccc(OCC(=O)O)cc2)NC(=O)CSC[C@@H](C(=O)N[C@@H](C)C(N)=O)NC(=O)[C@H]([C@@H](C)O)NC(=O)[C@H](C(C)C)NC(=O)[C@H](CC2CCCCC2)NC(=O)[C@H](Cc2c[nH]cn2)NC1=O [Compound 1591] | 17.9

same assay, conditions: Jurkat-PD-1 cells, PE-labeled PD-L1-Ig 20 nM final; read-out: Jurkat HPD1_PDL1 IC50

Compound | IC50 [nM]
CC(C)[C@@H]1NC(=O)[C@H](Cc2c[nH]c3ccccc23)NC(=O)[C@H](CC(=O)O)NC(=O)[C@H](Cc2ccc(OCC(=O)O)cc2)NC(=O)[C@H](Cc2ccncc2)NC(=O)CSC[C@@H](C(=O)N[C@@H](C)C(N)=O)NC(=O)[C@H]([C@@H](C)O)NC(=O)[C@H](C(C)C)NC(=O)[C@H](CC2CCCCC2)NC(=O)[C@H](CCN)NC(=O)[C@@H](CC2CCCCC2)NC(=O)[C@H](CCCN)NC(=O)[C@H](CCCNC(N)=O)NC(=O)[C@H](Cc2ccc(-c3ccccc3)cc2)NC1=O [Compound 1644] ({CH2CO}-[4Pal]Y(Carboxymethyl)DWV[Bip][Cit][Orn][dCha][Dab][Cha]VTCA-NH2; thioether N-14) | 16.7
CC(C)C[C@H]1NC(=O)[C@H](CCCN)NC(=O)[C@H](CCC(=O)O)NC(=O)[C@H](Cc2ccc(-c3ccccc3)cc2)NC(=O)[C@H](C(C)C)NC(=O)[C@H](Cc2c[nH]c3ccccc23)NC(=O)[C@H](CC(=O)O)NC(=O)[C@H](Cc2ccc(OCC(=O)O)cc2)NC(=O)[C@H](CN)NC(=O)CSC[C@@H](C(=O)N[C@@H](C)C(N)=O)NC(=O)[C@H]([C@@H](C)O)NC(=O)[C@H](C(C)C)NC(=O)[C@H](Cc2ccccc2Cl)NC(=O)[C@H](CCN)NC1=O [Compound 1483] ({CH2CO}-[Dap]Y(Carboxymethyl)DWV[Bip]E[Orn][dL][Dab][Phe(2-Cl)]VTCA-NH2; thioether N-14) | 34.8
CC[C@H](C)[C@@H]1NC(=O)[C@H](Cc2ccc(-c3ccccc3)cc2)NC(=O)[C@H](C(C)C)NC(=O)[C@H](Cc2cccc(C)c2)NC(=O)[C@H](CC(=O)O)NC(=O)[C@H](Cc2ccc(C(=O)O)cc2)NC(=O)[C@H](Cc2ccc(OCC(=O)O)cc2)NC(=O)CSC[C@@H](C(=O)N[C@@H](C)C(N)=O)NC(=O)[C@H]([C@@H](C)O)NC(=O)[C@H](C(C)C)NC(=O)[C@H](CC(C)C)NC(=O)[C@H](CCN)NC(=O)[C@@H](CC(C)C)NC(=O)[C@H](CCCN)NC1=O [Compound 1249] ({CH2CO}-Y(Carboxymethyl)[Phe(4-COOH)]D[Phe(3-Me)]V[Bip]I[Orn][dL][Dab]LVTCA-NH2; thioether N-14) | 4.6
Cc1cccc(C[C@@H]2NC(=O)[C@H](CC(=O)O)NC(=O)[C@H](Cc3ccc(F)cc3)NC(=O)[C@H](Cc3ccncc3)NC(=O)CSC[C@@H](C(=O)N[C@@H](CCN)C(N)=O)NC(=O)[C@H](Cc3c[nH]cn3)NC(=O)[C@H](C(C)(C)O)NC(=O)[C@H](CC3CCCCC3)NC(=O)[C@H](CCN)NC(=O)[C@@H](CC(C)C)NC(=O)[C@H](CCCN)NC(=O)[C@H](Cc3ccc(OCC(=O)O)cc3)NC(=O)[C@H](Cc3ccc(-c4ccccc4)cc3)NC(=O)[C@H](Cc3ccc(OCC(=O)O)cc3)NC2=O)c1 [Compound 2672] ({CH2CO}-[4Pal][Phe(4-F)]D[Phe(3-Me)]Y(Carboxymethyl)[Bip]Y(Carboxymethyl)[Orn][dL][Dab][Cha][Val(3-OH)]HC[Dab]-NH2; thioether N-14) | 488
CCCC[C@H]1NC(=O)[C@H](CCCN)NC(=O)[C@H](CCCNC(N)=O)NC(=O)[C@H](Cc2ccc(-c3ccccc3)cc2)NC(=O)[C@H](C(C)C)NC(=O)[C@H](Cc2c[nH]c3ccccc23)NC(=O)[C@H](CC(=O)O)NC(=O)[C@H](Cc2ccc(OCC(=O)O)cc2)NC(=O)[C@H](CN)NC(=O)CSC[C@@H](C(=O)N[C@@H](C)C(N)=O)NC(=O)[C@H]([C@@H](C)O)NC(=O)[C@H](C(C)C)NC(=O)[C@H](CC2CCCCC2)NC(=O)[C@H](CCN)NC1=O [Compound 1700] | 21.4
CC(C)C[C@@H]1NC(=O)[C@H](Cc2c[nH]c3ccccc23)NC(=O)[C@H](CC(=O)O)NC(=O)[C@H](Cc2ccc(O)cc2)NC(=O)[C@H](Cc2ccccc2)NC(=O)CSC[C@@H](C(=O)N[C@@H](C)C(N)=O)NC(=O)[C@H](CO)NC(=O)[C@H](C(C)C)NC(=O)[C@H](CC(C)C)NC(=O)[C@H](CC(N)=O)NC(=O)[C@@H](CC(C)C)NC(=O)[C@H](CCCN)NC(=O)[C@H](CCC(=O)O)NC(=O)[C@H](Cc2ccc(-c3ccccc3)cc2)NC1=O [Compound 1235] ({CH2CO}-FYDWL[Bip]E[Orn][dL]NLVSCA-NH2; thioether N-14) | 21
CC(C)C[C@H]1NC(=O)[C@H](CCCN)NC(=O)[C@H](CCC(=O)O)NC(=O)[C@H](Cc2ccc(-c3ccccc3)cc2)NC(=O)[C@H](C(C)C)NC(=O)[C@H](Cc2c[nH]c3ccccc23)NC(=O)[C@H](COCc2ccccc2)NC(=O)[C@H](Cc2ccc(OCC(=O)O)cc2)NC(=O)[C@H](CN)NC(=O)CSC[C@@H](C(=O)N[C@@H](C)C(N)=O)NC(=O)[C@H]([C@@H](C)O)NC(=O)[C@H](C(C)C)NC(=O)[C@H](CC2CCCCC2)NC(=O)[C@H](CCN)NC1=O [Compound 1497] ({CH2CO}-[Dap]Y(Carboxymethyl)S(Bn)WV[Bip]E[Orn][dL][Dab][Cha]VTCA-NH2; thioether N-14) | 344
Cc1cccc(C[C@@H]2NC(=O)[C@H](CC(=O)O)NC(=O)[C@H](Cc3ccc(C(=O)O)cc3)NC(=O)[C@H](C)N(C)C(=O)CSC[C@@H](C(=O)N[C@@H](CCN)C(N)=O)NC(=O)[C@H](CCC(=O)O)NC(=O)[C@H](C(C)(C)O)NC(=O)[C@H](CC3CCCCC3)NC(=O)[C@H](CCN)NC(=O)[C@@H](CC(C)C)NC(=O)[C@H](CCCN)NC(=O)[C@H](Cc3ccc(OCC(=O)O)cc3)NC(=O)[C@H](Cc3ccc(-c4ccccc4)cc3)NC(=O)[C@H](Cc3ccc(OCC(=O)O)cc3)NC2=O)c1 [Compound 2690] ({CH2CO}-[NMeA][Phe(4-COOH)]D[Phe(3-Me)]Y(Carboxymethyl)[Bip]Y(Carboxymethyl)[Orn][dL][Dab][Cha][Val(3-OH)]EC[Dab]-NH2; thioether N-14) | 481
CC(C)C[C@H]1NC(=O)[C@H](CCCN)NC(=O)[C@H](C(C)C)NC(=O)[C@H](Cc2ccc(-c3ccccc3)cc2)NC(=O)[C@H](C(C)C)NC(=O)[C@H](Cc2c[nH]c3ccccc23)NC(=O)[C@H](CC(=O)O)NC(=O)[C@H](Cc2ccc(OCC(=O)O)cc2)NC(=O)[C@H](C(C)O)NC(=O)CSC[C@@H](C(=O)N[C@H](CC(N)=O)C(N)=O)NC(=O)[C@H](CO)NC(=O)[C@H](C(C)C)NC(=O)[C@H](CC2CCCCC2)NC(=O)[C@H](CCN)NC1=O (stereo partly drawn) [Compound 2565] ({CH2CO}-[Thr(3ξ)]Y(Carboxymethyl)DWV[Bip]V[Orn][dL][Dab][Cha]VSC[dN]-NH2; thioether N-14) | 3.3
CC(C)C[C@@H]1NC(=O)[C@H](CCN)NC(=O)[C@@H](CC(C)C)NC(=O)[C@H](CCCN)NC(=O)[C@H](C(C)C)NC(=O)[C@H](Cc2ccc(-c3ccccc3)cc2)NC(=O)[C@H](C(C)C)NC(=O)[C@H](Cc2c[nH]c3ccccc23)NC(=O)[C@H](CC(=O)O)NC(=O)[C@H](Cc2ccc(C(=O)O)cc2)NC(=O)[C@H](CN)NC(=O)CSC[C@@H](C(=O)N[C@@H](C)C(N)=O)NC(=O)[C@H]([C@@H](C)O)NC(=O)[C@H](C(C)C)NC1=O [Compound 1046] ({CH2CO}-[Dap][Phe(4-COOH)]DWV[Bip]V[Orn][dL][Dab]LVTCA-NH2; thioether N-14) | 14
